US20240200147A1, “Non-Small Cell Lung Cancer Diagnosis and Treatment” (West Virginia University Board of Governors on Behalf of …, priority 2022, published 2024)
Read-outs that look alike come from different tables or passages of the source. Non-standard residues stand in square brackets, D forms with d. Residues, ends and D or L forms follow the SMILES beside them.

How the values were obtained:
[1] = system: phosphorylated extracellular signal-regulated kinase (pERK); details: patients with locally advanced/metastatic melanoma; clinically relevant doses; phase I; cited from earlier work
CCLE NSCLC cell lines = test: Average IC50 and EC50 of selected compounds in PRISM drug screening data; format: cell-based, human; details: for EC50 / IC50: PRISM dataset, NSCLC cell lines, outliers (drug concentration value > 10) removed
Excerpt: The drug sensitivity data of human NSCLC cell lines were taken from multiple resources. The secondary PRISM repurposing dataset was obtained from the DepMap release 19Q4. […] A total of 64 NSCLC cell lines from GDSC1 and 58 NSCLC cell lines from GDSC2 were included in this study. Details of the categorization of drug sensitivity in each cell line were included in our previous publications.

pERK = details: patients with solid tumors; phase I; cited from earlier work
[2] = system: human NSCLC A549 and NCI-H358 cells; details: cited from earlier work
[3] = system: EGFR and HER2 transactivation; details: cited from earlier work
NSCLC H460 cells = details: in-vitro and in-vivo; cited from earlier work
[4] = system: oxidative phosphorylation; details: mitochondrial protonophore; cited from earlier work
refractory NSCLC = refractory NSCLC patients; open-label phase II; cited from earlier work
NSCLC cells [5] = details: cited from earlier work
NSCLC cells [6] = details: cited from earlier work; remark: listed apart in the source
U87MG glioma cells = details: cited from earlier work
glioma tumor = details: mouse xenograft model; cited from earlier work
U2OS and 143B lines = details: cited from earlier work
[7] = system: endogenous promoters containing activator protein 1 (AP-1) response elements; details: genes lacking an AP-1 response element not affected; cited from earlier work
[8] = system: human breast cancer MDA-MB-231 and HBC-4 cells; details: cited from earlier work
[9] = system: Ki-ras-transformed rat fibroblasts; details: concurrent suppression of ERK and mTOR-p70(S6K) pathways; cited from earlier work
trophoblast = details: fetal growth restriction; cited from earlier work
non-progressing NSCLC = details: maintenance therapy, linsitinib added to erlotinib; cited from earlier work
NSCLC = details: linsitinib added to erlotinib, compared with erlotinib alone; cited from earlier work
[10] = system: late-stage, metastatic, Kras-mutant NSCLC; details: compared with various combination therapies, chemo-, and immune therapy; cited from earlier work
[11] = BMS-754807 alone, A549 and NCI-H358
[12] = induced by addition of ET-1 to NSCLC cells

O=C(NC[C@H](O)CO)c1ccncc1Nc1ccc(I)cc1F [AS-703026, pimasertib]
pERK in peripheral blood mononuclear cells [1]: inhibition
EC50 (CCLE NSCLC cell lines; Homo sapiens): 940 nM
IC50 (CCLE NSCLC cell lines; Homo sapiens): 1510 nM
pERK (pERK): inhibited

C[C@@]1(C(=O)Nc2ccc(F)nc2)CCCN1c1nc(Nc2cc(C3CC3)n[nH]2)c2cccn2n1 [BMS-754807]
effect on cisplatin and carboplatin ([2]; A549 cells): enhanced
apoptosis [2, 11]: enhanced
cell survival and wound closure [2, 11]: reduced
EC50 (CCLE NSCLC cell lines; Homo sapiens): 1020 nM
IC50 (CCLE NSCLC cell lines; Homo sapiens): 1740 nM

CC(C)C[C@@H]1NC(=O)[C@@H](C(C)C)NC(=O)[C@@H]2CCCN2C(=O)[C@@H](CC(=O)O)NC(=O)[C@@H](Cc2c[nH]c3ccccc23)NC1=O [BQ-123] (cyclo(L[dW][dD]P[dV]))
increase in EGFR and HER2 transactivation [3, 12]: inhibited

CNC(=O)[C@H](Cc1c[nH]c2ccccc12)NC(=O)[C@@H](CC(=O)NO)CC(C)C [GM6001]
increase in EGFR and HER2 transactivation [3, 12]: inhibited

CS(=O)(=O)CCNCc1ccc(-c2ccc3ncnc(Nc4ccc(OCc5cccc(F)c5)c(Cl)c4)c3c2)o1 [Lapatinib]
increase in EGFR and HER2 transactivation [3]: inhibited

N#CC(=C(N)Sc1ccc(N)cc1)c1ccccc1C(F)(F)F [MEK1-2-inhibitor]
EC50 (CCLE NSCLC cell lines): 2200 nM
IC50 (CCLE NSCLC cell lines): 4200 nM

CN1CC[C@]23c4c5ccc(O)c4O[C@H]2[C@@H](O)C=C[C@H]3[C@H]1C5 [Morphine]
growth of NSCLC H460 cells (NSCLC H460 cells): promoted

COc1cccc(-c2cc(=O)c3ccccc3o2)c1N [PD-98059]
EC50 (CCLE NSCLC cell lines): 607 nM
IC50 (CCLE NSCLC cell lines): 4980 nM

O=C(NOCC1CC1)c1ccc(F)c(F)c1Nc1ccc(I)cc1Cl [PD-184352]
EC50 (CCLE NSCLC cell lines): 2190 nM
IC50 (CCLE NSCLC cell lines): 3990 nM

Cc1cc(I)ccc1Nc1c(C(=O)NOCC2CC2)cc(F)c(F)c1F [PD-198306]
oxidative phosphorylation [4]: uncouples
EC50 (CCLE NSCLC cell lines; Homo sapiens): 2030 nM
IC50 (CCLE NSCLC cell lines; Homo sapiens): 3160 nM

O=C(NOC[C@H](O)CO)c1ccc(F)c(F)c1Nc1ccc(I)cc1F [PD-0325901]
primary endpoint (refractory NSCLC): did not meet
EC50 (CCLE NSCLC cell lines): 386 nM
IC50 (CCLE NSCLC cell lines): 748 nM
average IC50 and EC50 values (in words) (CCLE NSCLC cell lines; PRISM drug screening data): small

Cc1ccc(-c2nn(C(C)(C)C)c3ncnc(N)c23)cc1 [PP-1]
phosphorylation induced by morphine (NSCLC cells [5]): decreased
EC50 (CCLE NSCLC cell lines): 2080 nM
IC50 (CCLE NSCLC cell lines): 3410 nM
antiapoptotic impact of morphine (NSCLC cells [6]): reversed

CC(C)(C)n1nc(-c2ccc(Cl)cc2)c2c(N)ncnc21 [PP-2]
EC50 (CCLE NSCLC cell lines): 2480 nM
IC50 (CCLE NSCLC cell lines): 3190 nM
increase in EGFR and HER2 transactivation [3, 12]: inhibited

COc1ccc(Cl)cc1NC(=O)Nc1cc(C)nc2ccccc12 [PQ-401]
apoptosis (U87MG glioma cells): induces
in-vitro viability, proliferation, and mobility (U87MG glioma cells): inhibits
EC50 (CCLE NSCLC cell lines; Homo sapiens): 2200 nM
IC50 (CCLE NSCLC cell lines; Homo sapiens): 5340 nM
in-vivo glioma tumor growth (glioma tumor): inhibits
osteosarcoma cell proliferation, migration, and colony formation (U2OS and 143B lines): inhibits

O=S(=O)(O)c1cc(O)c(O)c(S(=O)(=O)O)c1 [Tiron]
increase in EGFR and HER2 transactivation [3, 12]: inhibited

N#CC(=C(/N)Sc1ccccc1N)/C(C#N)=C(\N)Sc1ccccc1N [U-0126]
endogenous promoters containing AP-1 response elements [7]: inhibits
EC50 (CCLE NSCLC cell lines; Homo sapiens): 1870 nM
IC50 (CCLE NSCLC cell lines; Homo sapiens): 4530 nM
sensitivity to anoikis [8]: sensitizes
anchorage-independent growth [9]: inhibits

COc1nc(C)cnc1NS(=O)(=O)c1cccnc1-c1ccc(-c2nnco2)cc1 [ZD4054]
increase in EGFR and HER2 transactivation [3, 12]: inhibited

COc1cc2ncnc(Nc3ccc(Cl)cc3F)c2cc1OC [ZM-306416]
trophoblast proliferation and migration (trophoblast): impaired
EC50 (CCLE NSCLC cell lines; Homo sapiens): 1080 nM
IC50 (CCLE NSCLC cell lines; Homo sapiens): 2630 nM

COc1cc(Nc2c(C#N)cnc3cc(OCCCN4CCN(C)CC4)c(OC)cc23)c(Cl)cc1Cl [bosutinib]
EC50 (CCLE NSCLC cell lines; Homo sapiens): 1590 nM
IC50 (CCLE NSCLC cell lines; Homo sapiens): 3160 nM

Cc1nc(Nc2ncc(C(=O)Nc3c(C)cccc3Cl)s2)cc(N2CCN(CCO)CC2)n1 [dasatinib]
EC50 (CCLE NSCLC cell lines; Homo sapiens): 504 nM
IC50 (CCLE NSCLC cell lines; Homo sapiens): 555 nM

COc1cc2c(cc1OC)[C@@H]1C(=O)c3ccc4c(c3O[C@@H]1CO2)C=CC(C)(C)O4 [deguelin]
antiapoptotic impact of morphine (NSCLC cells [6]): reversed

O=C1Nc2ccccc2/C1=C1/Nc2ccccc2C1=O [indirubin]
EC50 (CCLE NSCLC cell lines; Homo sapiens): 630 nM
IC50 (CCLE NSCLC cell lines; Homo sapiens): 3550 nM

C[C@]1(O)C[C@@H](c2nc(-c3ccc4ccc(-c5ccccc5)nc4c3)c3c(N)nccn32)C1 [linsitinib]
PFS or OS (non-progressing NSCLC): did not improve
patient outcomes (NSCLC): worse patient outcomes
EC50 (CCLE NSCLC cell lines; Homo sapiens): 2090 nM
IC50 (CCLE NSCLC cell lines; Homo sapiens): 4250 nM

C[N@+]1(CC2CC2)CC[C@]23c4c5ccc(O)c4O[C@H]2C(=O)CC[C@@]3(O)[C@H]1C5 [methylnaltrexone]
phosphorylation induced by morphine (NSCLC cells [5]): decreased
antiapoptotic impact of morphine (NSCLC cells [6]): reversed

CN1CCN(CCOc2cc(OC3CCOCC3)c3c(Nc4c(Cl)ccc5c4OCO5)ncnc3c2)CC1 [saracatinib]
EC50 (CCLE NSCLC cell lines; Homo sapiens): 983 nM
IC50 (CCLE NSCLC cell lines; Homo sapiens): 1730 nM

Cn1cnc2c(F)c(Nc3ccc(Br)cc3Cl)c(C(=O)NOCCO)cc21 [selumetinib]
safety profile in treating NSCLC [10]: better safety profile
EC50 (CCLE NSCLC cell lines; Homo sapiens): 647 nM
IC50 (CCLE NSCLC cell lines; Homo sapiens): 2210 nM
